In ChEMBL document CHEMBL5331114, “Discovery of Pyxinol Amide Derivatives Bearing Amino Acid Residues as Nonsubstrate Allosteric Inhibitors of P-Glycoprotein-Mediated Multidrug Resistance” (J Med Chem, 2023):
The source made the active and inactive calls. The rule behind the calls is not given here.

Legend:
[1] = Cytotoxicity against human KBV Cells assessed as cell survival rate at 10 uM incubated for 72 hrs by MTT assay; assay type: functional; conditions: read-out: Survival
[2] = Reversal of multidrug resistance in human KBV Cells assessed as increase in PTX-induced cytotoxicity by measuring cell survival rate at 10 uM incubated for 72 hrs in presence of paclitaxel by MTT assay relative to control; assay type: functional; conditions: read-out: Survival
[3] = Reversal of multidrug resistance in human KBV Cells assessed as reversal fold of paclitaxel IC50 at 5 uM incubated for 72 hrs in presence of paclitaxel by MTT assay; assay type: functional
[4] = target: T1, P-gp (ABCB1) ATPase (Homo sapiens, UniProt P08183); test: Negative allosteric modulator activity at human P-gp ATP synthase hydrolytic activity assessed as inhibition of Vrp-stimulated Pgp-ATPase activity incubated for 60 mins in presence of ATP by Glo-luminescence based microplate reader assay relative to DMSO; conditions: probe Vrp (stimulator of the ATPase activity)
[5] = target: T1, P-gp (ABCB1) ATPase; test: Negative allosteric modulator activity at human P-gp ATP synthase hydrolytic activity assessed as inhibition of basal Pgp-ATPase activity incubated for 60 mins in presence of ATP by Glo-luminescence based microplate reader assay relative to DMSO
[6] = target: T1, P-gp (ABCB1) ATPase; test: Negative allosteric modulator activity at human P-gp ATP synthase hydrolytic activity assessed as inhibition of Vrp-stimulated Pgp-ATPase activity at 25 uM incubated for 60 mins in presence of ATP by Glo-luminescence based microplate reader assay relative to DMSO; conditions: probe Vrp (stimulator of the ATPase activity)
[7] = target: T1, P-gp (ABCB1) ATPase; test: Negative allosteric modulator activity at human P-gp ATP synthase hydrolytic activity assessed as inhibition of basal Pgp-ATPase activity at 25 uM incubated for 60 mins in presence of ATP by Glo-luminescence based microplate reader assay relative to DMSO
[8] = target: T2, ATP-dependent translocase ABCB1 (Homo sapiens, UniProt P08183); test: Negative allosteric modulator activity at human P-gp ATP synthase hydrolytic activity assessed as inhibition of basal Pgp-ATPase activity at 1 mM incubated for 60 mins in presence of ATP by Glo-luminescence based microplate reader assay; conditions: 1 h, 1000 µM
[9] = Drug accumulation in human KB cells at 10 uM incubated for 4 hrs by LC-MS/MS analysis; assay type: ADME, cell-based
[10] = Drug accumulation in human KBV cells at 10 uM incubated for 4 hrs by LC-MS/MS analysis; assay type: ADME, cell-based
[11] = target: T2, ATP-dependent translocase ABCB1; test: Negative allosteric modulator activity at P-glycoprotein mediated Rhodamine-123 efflux in human KBV cells assessed as increase in intracellular Rhodamine-123 accumulation incubated for 2 hrs by flow cytometry analysis; assay type: cell-based
[12] = target: T2, ATP-dependent translocase ABCB1; test: Negative allosteric modulator activity at P-glycoprotein mediated Rhodamine-123 efflux in human KBV cells assessed as increase in intracellular Rhodamine-123 accumulation incubated for 2 hrs in presence of Ptx-C by flow cytometry analysis; assay type: cell-based
[13] = target: T2, ATP-dependent translocase ABCB1; test: Negative allosteric modulator activity at P-glycoprotein mediated Rhodamine-123 efflux in human KBV cells assessed as increase in intracellular Rhodamine-123 accumulation at 10 uM incubated for 2 hrs in presence of Ptx-C by flow cytometry analysis; assay type: cell-based
[14] = target: T2, ATP-dependent translocase ABCB1; test: Negative allosteric modulator activity at P-glycoprotein in human KBV cells assessed as effect on P-gp protein expression level at 10 uM incubated for 72 hrs by Western blotting analysis; assay type: cell-based
[15] = target: T2, ATP-dependent translocase ABCB1; test: Negative allosteric modulator activity at P-glycoprotein in human KBV cells assessed as effect on P-gp protein localization at 10 uM incubated for 48 hrs by immunofluorescence analysis; assay type: cell-based
[16] = target: T2, ATP-dependent translocase ABCB1; test: Binding affinity to P-glycoprotein in human KBV cells assessed as stabilization of P-glycoprotein at 50 uM incubated for 26 hrs by western blot based cellular thermal shift assay; assay type: cell-based
[17] = target: Multidrug resistance-associated protein 1 (Homo sapiens, UniProt P33527); test: Binding affinity to ABCC1 in human KBV cells assessed as stabilization of ABCC1 at 50 uM incubated for 26 hrs by western blot based cellular thermal shift assay; assay type: cell-based
[18] = Induction of cell cycle arrest in human KBV cells assessed as accumulation of cells at Sub-G1 phase at 5 uM incubated for 24 hrs by flow cytometry analysis (reference value: 1.24 +/- 0.14%); assay type: functional
[19] = Induction of cell cycle arrest in human KBV cells assessed as accumulation of cells at G2-M phase at 5 uM incubated for 24 hrs by flow cytometry analysis (reference value: 24.94 +/- 0.21%); assay type: functional
[20] = Induction of cell cycle arrest in human KBV cells assessed as accumulation of cells at Sub-G1 phase at 10 uM incubated for 24 hrs by flow cytometry analysis (reference value: 1.24 +/- 0.14%); assay type: functional
[21] = Induction of cell cycle arrest in human KBV cells assessed as accumulation of cells at G1-G0 phase at 10 uM incubated for 24 hrs by flow cytometry analysis (reference value: 62.34 +/- 0.24%); assay type: functional
[22] = Induction of cell cycle arrest in human KBV cells assessed as accumulation of cells at S phase at 10 uM incubated for 24 hrs by flow cytometry analysis (reference value: 12.42 +/- 0.41%); assay type: functional
[23] = Induction of cell cycle arrest in human KBV cells assessed as accumulation of cells at G2-M phase at 10 uM incubated for 24 hrs by flow cytometry analysis (reference value: 24.94 +/- 0.21%); assay type: functional
[24] = Induction of Ptx-mediated cell cycle arrest in human KBV cells assessed as accumulation of cells at Sub-G1 phase at 5 uM incubated for 24 hrs in presence of paclitaxel by flow cytometry analysis (reference value: 1.21 +/- 0.3%); assay type: functional
[25] = Induction of Ptx-mediated cell cycle arrest in human KBV cells assessed as accumulation of cells at G2-M phase at 5 uM incubated for 24 hrs in presence of paclitaxel by flow cytometry analysis (Rvb =25.34 +/- 0.92%); assay type: functional
[26] = Induction of Ptx-mediated cell cycle arrest in human KBV cells assessed as accumulation of cells at Sub-G1 phase at 10 uM incubated for 24 hrs in presence of paclitaxel by flow cytometry analysis (reference value: 1.21 +/- 0.3%); assay type: functional
[27] = Induction of Ptx-mediated cell cycle arrest in human KBV cells assessed as accumulation of cells at S phase at 10 uM incubated for 24 hrs in presence of paclitaxel by flow cytometry analysis (Rvb =16.63 +/- 0.4%); assay type: functional
[28] = Induction of Ptx-mediated cell cycle arrest in human KBV cells assessed as accumulation of cells at G2-M phase at 10 uM incubated for 24 hrs in presence of paclitaxel by flow cytometry analysis (Rvb =25.34 +/- 0.92%); assay type: functional
[29] = test system: KBV; test: Chemo-sensitizing activity against Ptx-resistance human KBV cells xenografted in BALB/c mouse assessed as inhibition of tumor growth at 20 mg/kg,ip measured after 23 days; assay type: functional, organism-based; conditions: time 23.0 day
[30] = Toxicity against BALB/c mouse xenografted with Ptx-resistance human KBV cells at 20 mg/kg,ip measured after 23 days; assay type: organism-based; conditions: in vivo, 552 h, time 23 day

T2 sequence (P08183 whole entry): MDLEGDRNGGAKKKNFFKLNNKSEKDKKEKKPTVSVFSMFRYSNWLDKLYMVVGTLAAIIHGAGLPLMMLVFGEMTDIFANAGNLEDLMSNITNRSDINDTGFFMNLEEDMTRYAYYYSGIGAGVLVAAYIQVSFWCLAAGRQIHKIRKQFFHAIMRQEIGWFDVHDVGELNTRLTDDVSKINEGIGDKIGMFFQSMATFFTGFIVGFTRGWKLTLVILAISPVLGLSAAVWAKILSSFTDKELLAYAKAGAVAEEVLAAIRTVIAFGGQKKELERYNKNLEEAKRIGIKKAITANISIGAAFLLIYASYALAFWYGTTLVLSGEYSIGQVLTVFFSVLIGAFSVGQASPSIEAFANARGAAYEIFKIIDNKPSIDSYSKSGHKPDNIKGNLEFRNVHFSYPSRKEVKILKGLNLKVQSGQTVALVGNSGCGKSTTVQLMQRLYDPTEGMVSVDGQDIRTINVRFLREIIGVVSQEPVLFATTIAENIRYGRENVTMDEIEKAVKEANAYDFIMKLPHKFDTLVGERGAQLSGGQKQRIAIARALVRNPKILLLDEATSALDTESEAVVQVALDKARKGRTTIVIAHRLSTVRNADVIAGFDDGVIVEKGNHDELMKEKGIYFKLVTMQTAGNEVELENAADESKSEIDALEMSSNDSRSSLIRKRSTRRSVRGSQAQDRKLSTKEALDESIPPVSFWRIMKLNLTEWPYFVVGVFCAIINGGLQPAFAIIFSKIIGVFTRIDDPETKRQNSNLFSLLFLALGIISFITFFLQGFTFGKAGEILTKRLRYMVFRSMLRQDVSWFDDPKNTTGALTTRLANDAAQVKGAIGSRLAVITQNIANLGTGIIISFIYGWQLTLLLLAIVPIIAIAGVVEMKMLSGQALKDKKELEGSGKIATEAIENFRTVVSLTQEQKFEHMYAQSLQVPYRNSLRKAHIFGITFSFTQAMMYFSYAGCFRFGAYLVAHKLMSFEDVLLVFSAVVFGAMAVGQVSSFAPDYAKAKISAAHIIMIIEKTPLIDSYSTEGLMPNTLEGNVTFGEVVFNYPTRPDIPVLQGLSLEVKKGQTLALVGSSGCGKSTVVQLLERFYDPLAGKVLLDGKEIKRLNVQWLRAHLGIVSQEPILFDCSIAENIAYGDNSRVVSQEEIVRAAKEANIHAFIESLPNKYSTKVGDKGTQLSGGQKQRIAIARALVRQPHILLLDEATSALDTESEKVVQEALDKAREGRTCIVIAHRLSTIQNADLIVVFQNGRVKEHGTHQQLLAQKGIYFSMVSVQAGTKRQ
T1 sequence (P08183 whole entry): as above
Sequence of Multidrug resistance-associated protein 1 (P33527 whole entry): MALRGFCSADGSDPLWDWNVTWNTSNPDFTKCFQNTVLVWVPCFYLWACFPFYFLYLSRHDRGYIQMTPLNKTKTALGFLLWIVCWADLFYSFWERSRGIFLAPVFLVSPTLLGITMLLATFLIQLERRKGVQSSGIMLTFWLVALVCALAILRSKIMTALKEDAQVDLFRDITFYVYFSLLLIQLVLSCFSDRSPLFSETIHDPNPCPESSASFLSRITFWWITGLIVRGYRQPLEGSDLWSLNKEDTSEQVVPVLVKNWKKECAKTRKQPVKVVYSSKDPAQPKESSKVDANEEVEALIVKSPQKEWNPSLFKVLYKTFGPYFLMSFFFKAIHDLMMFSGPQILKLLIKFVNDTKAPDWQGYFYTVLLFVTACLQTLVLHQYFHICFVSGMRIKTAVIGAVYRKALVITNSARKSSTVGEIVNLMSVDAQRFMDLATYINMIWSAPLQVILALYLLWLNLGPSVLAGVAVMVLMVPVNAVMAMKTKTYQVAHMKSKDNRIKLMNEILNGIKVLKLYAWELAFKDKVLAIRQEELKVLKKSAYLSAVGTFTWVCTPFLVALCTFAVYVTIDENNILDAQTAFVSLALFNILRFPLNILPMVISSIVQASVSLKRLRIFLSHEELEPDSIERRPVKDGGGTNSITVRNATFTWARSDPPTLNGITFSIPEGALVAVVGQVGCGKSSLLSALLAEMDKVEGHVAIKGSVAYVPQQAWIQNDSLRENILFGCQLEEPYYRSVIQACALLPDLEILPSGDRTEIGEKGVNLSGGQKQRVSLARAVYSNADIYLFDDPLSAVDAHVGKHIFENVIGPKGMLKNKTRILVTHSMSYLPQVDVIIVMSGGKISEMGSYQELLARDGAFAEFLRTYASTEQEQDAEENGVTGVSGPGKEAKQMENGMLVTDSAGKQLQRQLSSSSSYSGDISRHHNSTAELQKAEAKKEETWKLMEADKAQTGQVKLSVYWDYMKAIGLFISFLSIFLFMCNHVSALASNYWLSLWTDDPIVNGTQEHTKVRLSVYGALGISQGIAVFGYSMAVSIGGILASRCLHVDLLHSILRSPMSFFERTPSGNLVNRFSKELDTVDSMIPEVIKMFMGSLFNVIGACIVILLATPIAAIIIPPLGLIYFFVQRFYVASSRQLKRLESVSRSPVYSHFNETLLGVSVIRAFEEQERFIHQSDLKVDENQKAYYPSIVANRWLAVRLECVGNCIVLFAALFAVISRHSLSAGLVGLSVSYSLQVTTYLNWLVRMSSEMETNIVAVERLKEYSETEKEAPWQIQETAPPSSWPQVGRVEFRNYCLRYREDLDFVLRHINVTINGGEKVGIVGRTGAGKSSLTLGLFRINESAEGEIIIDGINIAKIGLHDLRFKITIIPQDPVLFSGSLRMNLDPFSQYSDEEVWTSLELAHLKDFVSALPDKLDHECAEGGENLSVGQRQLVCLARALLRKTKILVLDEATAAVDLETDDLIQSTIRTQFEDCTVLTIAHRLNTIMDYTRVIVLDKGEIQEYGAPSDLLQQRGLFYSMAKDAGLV

CC(C)(O)[C@H]1CC[C@@](C)([C@H]2CC[C@]3(C)[C@@H]2[C@H](O)C[C@@H]2[C@@]4(C)CC[C@H](NC(=O)[C@@H]5CCCN5)C(C)(C)[C@@H]4CC[C@]23C)O1
viability at 10 µM [1]: 123%
viability at 10 µM [2]: 30%
fold change (FC) [3]: 21
inhibition at 1 h [4]: 40%
inhibition at 1 h [5]: 13%
inhibition at 1 h, 25 µM [6]: 60%
inhibition at 1 h, 25 µM [7]: 87%
inhibition (INH) [8]: Not Active
Drug uptake [9]: Active
Drug uptake [10]: Active
Activity [11]: Dose-Dependent Effect
Activity [12]: Dose-Dependent Effect
Activity [13]: Not Active
Activity [14]: Not Active
Activity [15]: Not Active
Activity [16]: Active
Activity [17]: Not Active
Activity [18]: 0.58%
Activity [19]: 27.12%
Activity [20]: 1%
Activity [21]: 60.47%
Activity [22]: 13.74%
Activity [23]: 25.93%
Activity [24]: 11.4%
Activity [25]: 31.28%
Activity [26]: 8.58%
Activity [27]: 20.53%
Activity [28]: 42.21%
Activity [29]: inactive
Activity [30]: Non-Toxic
